Values after ≈ are worked out from the molar mass of the structure shown.
details: buffer; pH 7.4; 200.0 µM

solubility kinetic [µg/mL]	SMILES
< 0.4	CCC(=O)c1cn(CC(=O)Nc2cccc(OC)c2)c2ccccc12
50.3 (≈ 149 µM)	O=C(CSc1ccc([N+](=O)[O-])cc1)OCC(=O)N1CCCC1=O
27.3 (≈ 88.3 µM)	CC(NC(=O)c1cc2ccccc2oc1=O)c1ccc(O)cc1 (centres undefined)
> 24.6	CN(C)C(=O)Nc1ccccc1
> 32.6	O=c1cc(NCc2ccccc2)[nH]c(=O)[nH]1
45.4 (≈ 106 µM)	O=C(O)c1ccc2c(c1)C(=O)N(c1ccc(C(=O)OCC(=O)c3ccccc3)cc1)C2=O
11.1 (≈ 33.6 µM)	CC1Cc2ccccc2N1C(=O)COC(=O)c1ccc(Cl)nc1 (centres undefined)
> 50.3	CC1CCCCC1NC(=O)NC(=O)COC(=O)c1nccnc1N (centres undefined)
> 52.9	CC1=C(C(=O)O)N2C(=O)C(NC(=O)c3ccccc3Cl)C2SC1 (centres undefined)
11 (≈ 24 µM)	O=C(Cn1cnc2cc([N+](=O)[O-])ccc2c1=O)N1CCN(S(=O)(=O)c2ccccc2)CC1
> 46.8	O=C(Cn1ncc2c([nH]c3ccccc32)c1=O)N1CCOCC1
3.4 (≈ 10.1 µM)	CCOc1ccccc1N=CC1=C(O)CC(c2ccccc2)CC1=O (centres undefined)
23.2 (≈ 59 µM)	Cc1ccc(S(=O)(=O)N2CCCCC2)cc1NC(=O)c1ccccc1Cl
22.9 (≈ 79.1 µM)	O=C1C2C3C=CC(C3)C2C(=O)N1c1cccc2ccccc12 (centres undefined)
> 74.2	COc1ccc(CNC(=O)COC(=O)c2cc(S(=O)(=O)N3CCOCC3)ccc2O)cc1OC
60.5 (≈ 145 µM)	NS(=O)(=O)c1cccc(NC(=O)CN2C(=O)C(=O)N(Cc3ccccc3)C2=O)c1
> 48.1	CCOC(=O)C1(C)NC(c2ccco2)C2C(=O)N(CC)C(=O)C21 (centres undefined)
9.7 (≈ 30.4 µM)	O=C(CN1C(=O)c2ccccc2S1(=O)=O)c1ccc(F)cc1
45.1 (≈ 144 µM)	Cn1cccc1C(=O)OCC(=O)N1CC(=O)Nc2ccccc21
> 49.2	O=C(c1ccccc1)C1CCN(C(=O)c2ccc(Cl)cc2)CC1
11 (≈ 22.3 µM)	COc1ccc(NC(=O)COC(=O)CCc2ccc(S(=O)(=O)N3CCOCC3)cc2)c(OC)c1

solubility kinetic [µg/mL]	SMILES
> 45.7	Cc1ccccc1N1C(=O)CC(c2c[nH]c3ccccc23)C1=O (centres undefined)
> 44.8	CC(=O)Nc1ccc(S(=O)(=O)NCC2CCCO2)cc1 (centres undefined)
> 46.4	COc1ccccc1C(=O)Nn1c(C)nc2ccccc2c1=O
> 50.2	Cc1nc2ccccc2n1C1CCN(C(=O)Nc2ccccc2)CC1
> 38	O=C(O)c1cccc(N2C(=O)CSC2=S)c1
> 41.3	CCCC(=O)OCC(=O)NC1CCCc2ccccc21 (centres undefined)
> 46.6	CC(=O)c1ccc(S(=O)(=O)N2CCN(C(C)=O)CC2)cc1
46.8 (≈ 131 µM)	O=C(CC1NCCN(Cc2ccccc2)C1=O)Nc1ccc(Cl)cc1 (centres undefined)
40.6 (≈ 143 µM)	CN(C(=O)c1cc2ccccc2cc1O)C1CCCCC1
12.8 (≈ 47.9 µM)	Cc1cccc(C)c1NC(=O)CC(C)c1ccccc1 (centres undefined)
> 52.1	CC1CCCC(NC(=O)CCNC(=O)c2ccc([N+](=O)[O-])cc2)C1C (centres undefined)
0.5 (≈ 1.75 µM)	Cc1sc(NC(=O)COc2ccccc2)c(C#N)c1C
38 (≈ 128 µM)	Cc1ccc(C)c(C(=O)OCC(=O)N(C)c2ccccc2)c1
29.7 (≈ 82.2 µM)	O=C(OCC(=O)N1CCCc2ccccc21)c1ccccc1OC(F)F
> 29	O=C1NCCSC1c1ccccc1 (centres undefined)
> 47.9	COc1ccccc1NC(=O)C(C)OC(=O)Cc1ccsc1 (centres undefined)
> 53.3	CC(C(=O)OCC(=O)c1ccccc1)N1C(=O)C2C3CCC(C3)C2C1=O (centres undefined)
> 40.3	Cl.NC(Cc1ccccc1)C(=O)N1CCCCC1 (centres undefined)
> 51.2	COc1ccccc1OCC(=O)Nc1ccc2c(c1)n(C)c(=O)n2C
> 50.4	O=C(COC(=O)CSc1ccc(Cl)cc1)Nc1ccccc1
15.7 (≈ 40.6 µM)	CC(C)(C)N(Cc1ccccc1)C(=O)CN1C(=O)c2ccccc2S1(=O)=O

Continued, molecule first:

SMILES	solubility kinetic [µg/mL]
Cc1c(NS(=O)(=O)c2cccs2)cccc1-c1nc2cccnc2s1	2.4 (≈ 6.19 µM)
O=S(=O)(c1cc(F)ccc1F)N1CCC2(CC1)OCCO2	> 47.9
C=CCn1c(NC(=O)c2ccco2)nc2ccccc21	21.2 (≈ 79.3 µM)
CN1CCN(S(=O)(=O)c2ccc(Cl)s2)CC1	> 42.1
CC(C)Oc1cccc(NC(=O)c2cnccc2C(F)(F)F)c1	43.9 (≈ 135 µM)
O=C(CSc1ccccc1C(=O)N1CCN(c2ccc([N+](=O)[O-])cc2)CC1)N1CCCC1	> 68.2
Cc1ccccc1Oc1ccccc1N	3.9 (≈ 19.6 µM)
O=[N+]([O-])c1cccc(S(=O)(=O)NCc2ccncc2)c1	> 44
O=C(Nc1ccccc1C(=O)NCCc1ccccc1)c1cnccn1	3.2 (≈ 9.24 µM)
O=C(NCC(=O)N1CCN(c2ccc([N+](=O)[O-])cc2)CC1)c1ccco1	11.4 (≈ 31.8 µM)
CCOc1ccc(N=C(C)C2=C(O)c3ccccc3C2=O)cc1	< 0.7
Cc1ccc2oc(C(=O)Nc3nonc3C)c(C)c2c1	< 0.2
COc1cccc(-c2cc(C(=O)NCC3CCCO3)c3cc(Br)cc(C)c3n2)c1 (centres undefined)	< 0.5
CCc1ccc(NC(=O)CCCN2C(=S)NC(C)(C)CC2C)cc1 (centres undefined)	38.7 (≈ 111 µM)
O=C(NCc1ccc2c(c1)OCO2)c1cc(=O)[nH]c2ccccc12	6 (≈ 18.6 µM)
O=C(O)CSc1ncnc2sc3c(c12)CCCC3	> 42.1
CC1(C)OC(C)(C)/C(=C\c2ccc(OCC(N)=O)cc2)C1=O	28 (≈ 92.3 µM)
O=C(O)CNC(=O)/C=C/c1ccc(Cl)cc1Cl	37.6 (≈ 137 µM)
Cc1ccc(S(=O)(=O)NCC(=O)Nc2cccnc2)cc1C	> 47.9
CN(C)/C=C(\C#N)C(=O)Nc1ccc(F)c(Cl)c1	2 (≈ 7.47 µM)
O=C(Nc1ccc(CN2CCOCC2)cc1)c1cc(Br)ccc1Cl	57 (≈ 139 µM)
COCCN(C(=S)Nc1cccc(C)c1C)C(C)c1ccco1 (centres undefined)	40.1 (≈ 121 µM)
Nc1cc(=O)[nH]c(SCC(=O)Nc2cc(Cl)ccc2Cl)n1	3.5 (≈ 10.1 µM)
CCS(=O)(=O)N1CCC(N2CCC(C)CC2)CC1.O=C(O)C(=O)O	53.3
Cc1ccc(C)c(Cn2cnc3c(oc4ccccc43)c2=O)c1	< 0.3
O=C(Nc1ccccc1C(=O)NCCCN1CCOCC1)c1ccc(F)cc1	55.4 (≈ 144 µM)

SMILES	solubility kinetic [µg/mL]
N=c1c2c(ncn1CCCO)Oc1cc(O)ccc1C2c1ccccc1 (centres undefined)	35.3 (≈ 101 µM)
Cn1cnc(S(=O)(=O)Nc2ccccc2N2CCOCC2)c1	> 48.4
Cc1[nH]ccc(=O)c1Cc1c(Cl)cccc1Cl	> 40.2
Cc1cc(-c2ccc(S(=O)(=O)N3CCCCC3)s2)on1	2.6 (≈ 8.32 µM)
CCN(CC)S(=O)(=O)c1ccc(N2CCOCC2)c(NC(=O)c2ccco2)c1	> 61.1
CC(=O)Cc1nsc(Nc2ccc(C)cc2)n1	35.9 (≈ 145 µM)
Cc1ccc(N2CC(C(=O)Nc3cccnc3)CC2=O)cc1C (centres undefined)	31.3 (≈ 101 µM)
CCc1cccc(C)c1N1C(=O)CC(C)(C)CC1=O	> 38.9
COC(=O)c1cc(S(=O)(=O)N2CCCCC2C)c[nH]1 (centres undefined)	> 43
O=C1CC(c2ccccc2)CC(O)=C1C=NCCc1ccccc1 (centres undefined)	2.1 (≈ 6.57 µM)
COc1ccc(Cl)cc1NC(=O)CN(C)C(=O)c1cccc2cccnc12	48.5 (≈ 126 µM)
Cc1ccc2nc(-c3ccccn3)cc(C(=O)NC(C)C(C)(C)C)c2c1 (centres undefined)	3.2 (≈ 9.21 µM)
S=C(NCCc1c[nH]c2ccccc12)NC1CCCCC1	2.8 (≈ 9.29 µM)
O=c1oc2ccccc2n1Cc1ccccc1F	4.2 (≈ 17.3 µM)
OCCCc1nc2ccccc2n1Cc1ccccc1	> 40
O=c1ccc2ccccc2n1Cc1cccc(F)c1	> 38
CN(C)CCNS(=O)(=O)c1ccc2c3c(cccc13)C(=O)N2	> 47.9
COc1ccc(NC(=O)NCc2cccnc2)c(OC)c1	> 43.1
O=[N+]([O-])c1ccc(N2CCN(C(=S)Nc3ccc(F)cc3)CC2)cc1	0.4 (≈ 1.11 µM)
c1ccc(-c2nccc3ccccc23)cc1	7.3 (≈ 35.6 µM)
Cc1cc(C)c(C)c(S(=O)(=O)NC(C(=O)O)C(C)C)c1C (centres undefined)	> 47
Cc1cc(C)c2c(CC(=O)N3CCCC3)coc2c1	> 38.6
O=[N+]([O-])c1ccc(O)c([N+](=O)[O-])c1	> 27.6
Cc1ccc(C(=O)NCCNC(=O)c2ccc(F)cc2)cn1	> 45.2
O=[N+]([O-])c1ccccc1CN1CC=C(c2ccc(F)cc2)CC1	2.3 (≈ 7.36 µM)
CC1CCCN(c2ccc(F)cc2N)C1.Cl (centres undefined)	3.8

SMILES	solubility kinetic [µg/mL]
CN1CCN(Cc2nc3ccccc3n2C)CC1CCO (centres undefined)	34.3 (≈ 119 µM)
O=C(Nc1cccc(F)c1)Nc1cnccn1	6.1 (≈ 26.3 µM)
Cc1ccc(C(C)NC(=O)c2cccnc2)cc1 (centres undefined)	33.5 (≈ 139 µM)
O=C(CCN1C(=O)c2ccccc2C1=O)NCCCn1ccnc1	> 49
Cc1cccc(C)c1N(CC(=O)N1CCOCC1)S(C)(=O)=O	> 49
CCOC(=O)C(NC(C)=O)(NC(C)C)C(F)(F)F (centres undefined)	2.2 (≈ 8.14 µM)
CC1(C)CC(=O)C=C(Nc2ccc(O)c(C(=O)O)c2)C1	> 41.3
CN(CC(=O)NCc1ccccn1)S(=O)(=O)c1ccc(F)cc1	> 50.6
Cc1onc(-c2ccccc2)c1C(=O)NCc1ccc(F)cc1	7 (≈ 22.6 µM)
OC(CN1CCOCC1)Cn1cnc2ccccc21 (centres undefined)	> 39.2
FC(F)(F)c1ccccc1NC(=S)N1CCCCCC1	> 45.4
CCCCCCCOc1ccc(C2(C)NC(=O)NC2=O)cc1 (centres undefined)	9.3 (≈ 30.6 µM)
O=C1c2ccsc2SCCN1Cc1cccc(F)c1	42.6 (≈ 145 µM)
CCOc1ccc(-c2nc(CCl)cs2)cc1OC.Cl	27.2
COC1CC(C)NC(=S)N1 (centres undefined)	> 24
COc1ccc(Cl)cc1C(=O)Nc1nc(C)cc(C)n1	> 43.8
CC1CCN(c2ccc(C=O)o2)CC1	> 29
CSc1ncc(Cl)c(C(=O)NCc2cccnc2)n1	> 44.2
CC1(C)CC2(CCO1)OC(=O)CC2C(=O)Nc1c(Cl)cccc1Cl (centres undefined)	52.9 (≈ 142 µM)
CCc1nc(N=C(N)N)nc2ccccc12	28 (≈ 130 µM)
COc1ccc(-c2nc(C)c(C(C)=O)n2O)cc1[N+](=O)[O-]	42.3 (≈ 145 µM)
Cc1[nH]c2ccc(C(=O)NCCCN3CCCCC3)cc2c1C	> 47
COC(=O)c1sccc1NC(=O)COc1cccc(C)c1	< 0.7
Cc1cccc(C(=O)O/N=C(\N)c2ccc(Cl)cc2)c1	< 0.3
Cc1ccc(CN2CCC(CO)(CC3CCCCO3)CC2)o1 (centres undefined)	> 46.1

— PubChem BioAssay AID1996
